Data from patent US5914339A, “Substituted 1,3-benzodioxoles” (American Home Products Corporation, priority 1997, dated 1999).

Assays:
plasma free fatty acids = test: Effects on plasma free fatty acid levels in rats; assay type: in vivo, rat; settings: Rattus norvegicus, 50 min; elevation of plasma free fatty acids, oral gavage; selected compounds; read-out: Rat Free Fatty Acid: ED50
Procedure: Rats respond to a single oral dose of β3 agonists by increasing plasma free fatty acids (FFA) in response to β3 receptor stimulation on the plasma membrane of the fat cell. 5-{2-[2-(3-Chloro-phenyl)-2-hydroxy-ethylamino]-propyl}-benzo[1,3]dioxole- 2,2-dicarboxylic acid diisopropyl ester (Standard 2) was used as a standard compound. All test compounds were dosed at 0.1 mg/kg and compared to the response by Standard 2.
1). Drugs were dissolved in DMSO at 10 mg/ml.
2). Twenty μl of the DMSO-drug solution was added to 10 mL methyl cellulose:tween-80 (0.5%:0.1%) for a final concentration of 20 μg/mL.
3). Methyl cellulose:tween-80 drug suspension was given via gavage (1 mL/200 g body weight; or 0.1 mg/kg) to rats and blood was collected 50 min later.
4). Plasma was analyzed for free fatty acids using a kit supplied by Biochemical Diagnostics Inc. (Brentwood, N.Y.).
5). Drug response was calculated from the formula below. [formula]
^b Elevation of plasma free fatty acids in rats, compounds tested at
0.1 mg/kg, results expressed as % of
5{2[2(3-Chloro-phenyl)-2-hydroxy-ethylaminopropylbenzo[1,3dioxole-2,2-dic
rboxylic acid diisopropyl ester response (78% increase) at 0.1 mg/kg.
ED50 (mg/kg) values determined for selected compounds.

[1] = biological target: human β1 adrenergic receptor (Homo sapiens, UniProt P08588); test: Human β1 adrenergic receptor agonist activity, cAMP increase in transfected CHO cells; assay type: cell-based; settings: cAMP in CHO cells; selected compounds; read-out: β1: EC50
human β1 adrenergic receptor, sequence (P08588 whole entry): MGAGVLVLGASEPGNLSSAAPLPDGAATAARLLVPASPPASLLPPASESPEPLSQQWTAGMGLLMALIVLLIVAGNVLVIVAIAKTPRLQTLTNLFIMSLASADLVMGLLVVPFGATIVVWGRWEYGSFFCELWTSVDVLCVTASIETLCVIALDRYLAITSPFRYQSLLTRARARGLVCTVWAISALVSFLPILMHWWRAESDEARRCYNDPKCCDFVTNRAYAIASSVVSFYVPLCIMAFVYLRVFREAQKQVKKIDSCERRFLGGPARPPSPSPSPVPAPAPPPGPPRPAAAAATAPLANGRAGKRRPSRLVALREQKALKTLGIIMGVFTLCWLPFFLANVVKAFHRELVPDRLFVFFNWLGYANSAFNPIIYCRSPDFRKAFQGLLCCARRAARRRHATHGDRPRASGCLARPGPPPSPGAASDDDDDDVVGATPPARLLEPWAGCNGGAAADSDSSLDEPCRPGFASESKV
Procedure: (§1) The activity of the test compounds on human β-adrenergic receptors was determined with Chinese hamster ovary (CHO) cells transfected with human β2, or β1 adrenergic receptors. Agonist activity is indicated by increased cAMP levels in the CHO cells. Selectivity of the test compounds for the β3 receptor was assessed by comparison with results in β2 and β1 adrenergic receptor transfected cells.
1). Chinese hamster ovary (CHO) cells transfected with human β2, or β1 adrenergic receptors were used in the assay.
2). Cells were grown to confluent conditions in 24 well plates.
3). Drugs were dissolved in DMSO at a concentration of 10 μM.
4). Cells were incubated with drug at 10 nM concentration for 10 min at 37° C.
5). Cell cAMP concentrations were assayed using a scintillation proximity assay kit from Amersham Corp., Chicago, Ill.
6). Activities for the test compounds are expressed as a percentage of the isoproterenol response.
Production of the CHO cells transfected with human β2, or β1 adrenergic receptors, and compound test procedures utilizing the CHO cells, are described by Emorine et al. in their article "Molecular Characterization of the Human Beta3 -Adrenergic Receptor", Science 1989, 245(8), 1118-1121 and by Muzzin et al. in the article "An Adipose Tissue-Specific Beta3 -Adrenergic Receptor", J. Biol. Chem.1991, 266, 24053-24058.
^a Human β receptors expressed in Chinese hamster ovary cells,
compounds tested at 10 nM, results expressed as % of isoproterenol
activity (increase in cAMP) at 10 μM. EC50 (μM) values
determined for selected compounds.

plasma glucose = test: Effects on hyperglycemia in db/db mice, plasma glucose; assay type: in vivo, mouse (male, db/db (C57BL/KsJ)); settings: Mus musculus, po, 96 h; p.o., 4 days, mean of 2 and 4 h values on Day 4; footnote c gives mg/kg/day; read-out: db/db Mice Plasma Glucose: ED50 for lowering of plasma glucose
[2] = biological target: human β2 adrenergic receptor (Homo sapiens, UniProt P07550); test: cell-based; settings: cAMP in CHO cells; selected compounds; read-out: β2: EC50
human β2 adrenergic receptor, sequence (P07550 whole entry): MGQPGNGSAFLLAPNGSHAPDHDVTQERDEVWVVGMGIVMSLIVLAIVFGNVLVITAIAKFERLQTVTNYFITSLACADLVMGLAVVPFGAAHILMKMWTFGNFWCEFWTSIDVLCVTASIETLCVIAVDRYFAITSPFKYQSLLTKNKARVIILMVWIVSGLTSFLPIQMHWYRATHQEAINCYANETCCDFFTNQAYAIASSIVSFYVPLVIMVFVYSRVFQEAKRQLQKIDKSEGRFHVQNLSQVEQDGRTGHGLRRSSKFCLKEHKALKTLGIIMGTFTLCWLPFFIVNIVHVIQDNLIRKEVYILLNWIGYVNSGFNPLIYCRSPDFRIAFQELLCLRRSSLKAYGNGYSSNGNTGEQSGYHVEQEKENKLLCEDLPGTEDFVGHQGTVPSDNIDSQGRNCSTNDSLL
Procedure, shortened: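 CHO cells transfected with human β1 or β2 adrenergic receptors were grown to confluence and exposed to compound at 10 nM for 10 min at 37° C. Cellular cAMP was measured by scintillation proximity assay. Activity is expressed as % of the response to 10 μM isoproterenol; EC50 (μM) was determined for selected compounds.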

[3] = tested on: human β-adrenergic receptors; test: cAMP elevation in all 3 transfected CHO cell types; assay type: cell-based; settings: 10 μM, all 3 cell types
Procedure: as §1
4). […]

Row | SMILES | ED50 (plasma free fatty acids) [mg/kg] | EC50 [1] [nM] | ED50 (plasma glucose) [mg/kg] | EC50 [2] [nM] | cAMP elevation [3]
1 | C[C@H](Cc1ccc2c(c1)OC(C(=O)OCC(C)(C)C)(C(=O)OCC(C)(C)C)O2)NC[C@H](O)c1cccc(Cl)c1 [Example 78, 5-{(2R)-2-[(2R)-2-(3-Chloro-phenyl)-2-hydroxy-ethylamino]-propyl}-benzo[1,3]dioxole-2,2-dicarboxylic acid bis-(2,2-dimethyl-propyl) ester] | 0.027 | 5000 | 0.028 | 325 | –
2 | CC(Cc1ccc2c(c1)OC(C(=O)OCCC(C)(C)C)(C(=O)OCCC(C)(C)C)O2)NCC(O)c1cccc(Cl)c1 (stereo not shown) [Example 33, 5-{2-[2-(3-Chloro-phenyl)-2-hydroxy-ethylamino]-propyl}-benzo[1,3]dioxole-2,2-dicarboxylic acid bis-(3,3-dimethyl-butyl) ester] | 0.08 | 5900 | 0.201 | 100 | –
3 | CC(C)NCC(O)c1ccc(O)c(O)c1 (stereo not shown) [Isoproterenol] | – | – | – | – | maximal cAMP elevation
4 | CC(Cc1ccc2c(c1)OC(C(=O)OCCc1ccccc1)(C(=O)OCCc1ccccc1)O2)NCC(O)c1cccc(Cl)c1.Cl (stereo not shown) [Example 2, 5-{2-[2-(3-Chloro-phenyl)-2-hydroxy-ethylamino]-propyl}-benzo[1,3]dioxole-2,2-dicarboxylic acid diphenethyl ester hydrochloride salt] | 0.071 | – | 0.128 | 22 | –
5 | CC(C)CCOC(=O)C1(C(=O)OCCC(C)C)Oc2ccc(C[C@@H](C)NC[C@H](O)c3cccc(Cl)c3)cc2O1 [Example 75, 5-{(2R)-2-[(2R)-2-(3-Chloro-phenyl)-2-hydroxy-ethylamino]-propyl}-benzo[1,3]dioxole-2,2-dicarboxylic acid bis-(3-methylbutyl)ester] | 0.026 | 5400 | 0.11 | 58 | –
